How the values were obtained:
[1] = system: sugar beet; test: Test B pre/postemergence sugar beet; type: in vivo, Beta vulgaris
Method in brief: (§1)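 Response is a visual 0-to-10 score relative to untreated plants, where 0 means no effect and 10 means complete control, taken twelve to sixteen days after application. Treatments went onto soil at planting and onto foliage of 1- to 4-leaf plants, using a surfactant-containing non-phytotoxic solvent.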

[2] = system: corn; test: Test B pre/postemergence corn; type: in vivo, Zea mays
Method in brief: as §1

[3] = system: wild oat; test: Test B pre/postemergence wild oat; type: in vivo, Avena fatua
Method in brief: as §1

[4] = system: cocklebur; test: Test B pre/postemergence cocklebur; type: in vivo, Xanthium strumarium
Method in brief: as §1

[5] = system: rice; test: Test B flood test rice; type: in vivo, Oryza sativa
Method in brief: (§2)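 Plants were grown to the 2-leaf stage before treatment with test chemical, then held in a greenhouse for twelve to sixteen days. Injury was visually rated against untreated controls on a 0–10 scale, where 0 is no effect and 10 is complete control.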

[6] = system: rape; test: Test B pre/postemergence rape; type: in vivo, Brassica napus
Method in brief: as §1

[7] = system: pigweed; test: Test B pre/postemergence pigweed; type: in vivo, Amaranthus retroflexus
Method in brief: as §1

[8] = system: smallflower flatsedge; test: Test B flood test smallflower flatsedge; type: in vivo, Cyperus difformis
Method in brief: as §2

[9] = system: crabgrass; test: Test B pre/postemergence crabgrass; type: in vivo, Digitaria sanguinalis
Method in brief: as §1

[10] = system: morningglory; test: Test B pre/postemergence morningglory; type: in vivo, Ipomoea hederacea
Method in brief: as §1

[11] = system: giant foxtail; test: Test B pre/postemergence giant foxtail; type: in vivo, Setaria faberii
Method in brief: as §1

[12] = system: bamyardgrass; test: Test B flood test barnyardgrass; type: in vivo, Echinochloa crus-galli
Method in brief: as §2

[13] = system: blackgrass; test: Test B pre/postemergence blackgrass; type: in vivo, Alopecurus myosuroides
Method in brief: as §1

[14] = system: velvetleaf; test: Test B pre/postemergence velvetleaf; type: in vivo, Abutilon theophrasti
Method in brief: as §1

[15] = system: surinam grass; test: Test B pre/postemergence surinam grass; type: in vivo, Brachiaria decumbens
Method in brief: as §1

[16] = system: bedstraw; test: Test B pre/postemergence bedstraw; type: in vivo, Galium aparine
Method in brief: as §1

[17] = Preemergence, Rate 62 g/ha, scale of 0 to 10 where 0 is no effect and 10 is complete control
[18] = Preemergence, Rate 250 g/ha, scale of 0 to 10 where 0 is no effect and 10 is complete control
[19] = Preemergence, Rate 500 g/ha, scale of 0 to 10 where 0 is no effect and 10 is complete control
[20] = Rate 62 g/ha, Postemergence, scale 0 to 10, 0 no effect, 10 complete control
[21] = Rate 125 g/ha, Postemergence, scale of 0 to 10 where 0 is no effect and 10 is complete control
[22] = Rate 125 g/ha, Preemergence, scale of 0 to 10 where 0 is no effect and 10 is complete control
[23] = Rate 250 g/ha, Postemergence, scale of 0 to 10 where 0 is no effect and 10 is complete control
[24] = Rate 500 g/ha, Postemergence, scale 0 to 10, 0 no effect, 10 complete control
[25] = Rate 62 g/ha, headed Pre-emergence (flood test species), scale 0 to 10 (0 no effect, 10 complete control)
[26] = Rate 125 g/ha, Pre-emergence, flood test species, scale 0 to 10 where 0 is no effect and 10 is complete control
[27] = Rate 250 g/ha, Pre-emergence, flood-test species, scale 0 to 10, 0 is no effect, 10 is complete control
[28] = Rate 500 g/ha, Pre-emergence, flood test species, scale 0 to 10 (0 no effect, 10 complete control)

## CCC=CCn1c(=O)on(C(=O)N(c2ccc(F)cc2)C(C)C)c1=O [Compound 286]
[1]; [17]
  Sugarbeets plant response rating: 0
[1]; [18]
  Sugarbeets plant response rating: 0
[1]; [19]
  Plant response rating, Sugarbeets: 4
[1]; [20]
  Sugarbeets plant response rating: 0
[1]; [21]
  Sugarbeets plant response rating: 2
[1]; [22]
  Sugarbeets plant response rating: 0
[1]; [23]
  Plant response rating, Sugarbeets: 2
[2]; [17]
  Corn plant response rating: 0
[2]; [18]
  Corn plant response rating: 0
[2]; [19]
  Plant response rating, Corn: 0
[2]; [20]
  Corn plant response rating: 0
[2]; [21]
  Corn plant response rating: 0
[2]; [22]
  Corn plant response rating: 0
[2]; [23]
  Plant response rating, Corn: 0
[2]; [24]
  Corn plant response rating: 0
[3]; [17]
  Wild oats plant response rating: 0
[3]; [18]
  Wild oats plant response rating: 4
[3]; [19]
  Plant response rating, Wild oats: 6
[3]; [20]
  Wild oats plant response rating: 0
[3]; [21]
  Wild oats plant response rating: 0
[3]; [23]
  Plant response rating, Wild oats: 2
[4]; [17]
  Cocklebur plant response rating: 0
[4]; [18]
  Cocklebur plant response rating: 0
[4]; [19]
  Plant response rating, Cocklebur: 0
[4]; [20]
  Cocklebur plant response rating: 0
[4]; [21]
  Cocklebur plant response rating: 0
[4]; [22]
  Cocklebur plant response rating: 0
[4]; [23]
  Plant response rating, Cocklebur: 0
[4]; [24]
  Cocklebur plant response rating: 0
[5]; [25]
  Rice plant response rating: 0
[5]; [26]
  Rice plant response rating: 0
[5]; [27]
  Rice plant response rating: 0
[5]; [28]
  Rice plant response rating: 0
[6]; [17]
  Rape plant response rating: 0
[6]; [18]
  Rape plant response rating: 3
[6]; [19]
  Plant response rating, Rape: 7
[6]; [20]
  Rape plant response rating: 0
[6]; [21]
  Rape plant response rating: 2
[6]; [22]
  Rape plant response rating: 0
[6]; [23]
  Plant response rating, Rape: 5
[7]; [17]
  Redroot pigweed plant response rating: 0
[7]; [18]
  Redroot pigweed plant response rating: 2
[7]; [19]
  Plant response rating, Redroot pigweed: 10
[7]; [20]
  Redroot pigweed plant response rating: 0
[7]; [21]
  Redroot pigweed plant response rating: 3
[7]; [22]
  Redroot pigweed plant response rating: 0
[7]; [23]
  Plant response rating, Redroot pigweed: 6
[8]; [25]
  S. Flatsedge plant response rating: 0
[8]; [26]
  S. Flatsedge plant response rating: 0
[8]; [27]
  S. Flatsedge plant response rating: 0
[8]; [28]
  S. Flatsedge plant response rating: 0
[9]; [17]
  Crabgrass plant response rating: 0
[9]; [18]
  Crabgrass plant response rating: 10
[9]; [19]
  Plant response rating, Crabgrass: 10
[9]; [20]
  Crabgrass plant response rating: 0
[9]; [21]
  Crabgrass plant response rating: 0
[9]; [22]
  Crabgrass plant response rating: 2
[9]; [23]
  Plant response rating, Crabgrass: 2
[10]; [17]
  Morningglory plant response rating: 0
[10]; [18]
  Morningglory plant response rating: 0
[10]; [19]
  Plant response rating, Morningglory: 0
[10]; [20]
  Morningglory plant response rating: 1
[10]; [21]
  Morningglory plant response rating: 3
[10]; [22]
  Morningglory plant response rating: 0
[10]; [23]
  Plant response rating, Morningglory: 8
[11]; [17]
  Giant foxtail plant response rating: 8
[11]; [18]
  Giant foxtail plant response rating: 10
[11]; [19]
  Plant response rating, Giant foxtail: 10
[11]; [20]
  Giant foxtail plant response rating: 0
[11]; [21]
  Giant foxtail plant response rating: 0
[11]; [22]
  Giant foxtail plant response rating: 10
[11]; [23]
  Plant response rating, Giant foxtail: 2
[12]; [25]
  Barnyardgrass plant response rating: 0
[12]; [26]
  Barnyardgrass plant response rating: 0
[12]; [27]
  Barnyardgrass plant response rating: 0
[12]; [28]
  Barnyardgrass plant response rating: 4
[13]; [17]
  Blackgrass plant response rating: 0
[13]; [18]
  Blackgrass plant response rating: 7
[13]; [19]
  Plant response rating, Blackgrass: 7
[13]; [20]
  Blackgrass plant response rating: 0
[13]; [21]
  Blackgrass plant response rating: 2
[13]; [22]
  Blackgrass plant response rating: 0
[13]; [23]
  Plant response rating, Blackgrass: 5
[13]; [24]
  Blackgrass plant response rating: 8
[14]; [17]
  Velvetleaf plant response rating: 0
[14]; [18]
  Velvetleaf plant response rating: 3
[14]; [19]
  Plant response rating, Velvetleaf: 5
[14]; [20]
  Velvetleaf plant response rating: 0
[14]; [21]
  Velvetleaf plant response rating: 0
[14]; [22]
  Velvetleaf plant response rating: 0
[14]; [23]
  Plant response rating, Velvetleaf: 0
[15]; [17]
  B. signalgrass plant response rating: 0
[15]; [18]
  B. signalgrass plant response rating: 8
[15]; [19]
  Plant response rating, B. signalgrass: 8
[15]; [20]
  B. signalgrass plant response rating: 0
[15]; [21]
  B. signalgrass plant response rating: 0
[15]; [22]
  B. signalgrass plant response rating: 3
[15]; [23]
  Plant response rating, B. signalgrass: 0
[15]; [24]
  B. signalgrass plant response rating: 2
[16]; [17]
  Bedstraw plant response rating: 0
[16]; [18]
  Bedstraw plant response rating: 0
[16]; [19]
  Plant response rating, Bedstraw: 0
[16]; [20]
  Bedstraw plant response rating: 2
[16]; [21]
  Bedstraw plant response rating: 2
[16]; [22]
  Bedstraw plant response rating: 0
[16]; [23]
  Plant response rating, Bedstraw: 5
[16]; [24]
  Bedstraw plant response rating: 6

From patent US6737383B1, “Herbicidal oxadiazolidines” (priority 1999, dated 2004)
